How the values were obtained:
25DKG-Rase [1] = biological target: T1, 25DKG-Rase (Corynebacterium sp., UniProt P15339); experiment: Spectrophotometric enzymatic activity (decrease in absorption at 340 nm), purified enzyme solution of Example 1; type: biochemical, Corynebacterium sp. No. 20A-77 mutant (FERM-BP 108); conditions: for reductive activity (in words) / Activity of the purified enzyme solution (1 ml): NADPH, 0.1M TB pH 7, 30° C.; for Enzymatic activity: per 1 ml purified enzyme solution
T1 construct: The enzyme is an intracellular enzyme extracted from the cells of the 2KLG producing strain; made in house; host or cells: natural producer Corynebacterium sp; No. 20A-77 mutant FERM-BP 108, enzyme purified from sonicated cells; not recombinant
T1 sequence (P15339 2-277 limits assumed): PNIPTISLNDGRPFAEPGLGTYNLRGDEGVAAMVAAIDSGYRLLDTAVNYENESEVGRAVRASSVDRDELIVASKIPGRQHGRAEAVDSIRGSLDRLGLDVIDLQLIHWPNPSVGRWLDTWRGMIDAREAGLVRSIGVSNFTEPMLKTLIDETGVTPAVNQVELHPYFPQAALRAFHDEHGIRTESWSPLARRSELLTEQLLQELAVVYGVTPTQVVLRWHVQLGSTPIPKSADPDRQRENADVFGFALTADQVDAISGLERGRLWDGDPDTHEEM

[2] = tested on: 25DKG-Rase derived from Strain K-106; experiment: Substrate specificity by product formation, enzyme from K-106; type: biochemical, Corynebacterium sp. No. K-106 (ATCC 31,088)
Protocol: (§1) The purified enzyme solution (10 μl) obtained above (3) was mixed with 25 μmoles of a substrate (Ca-25DKG or 5KF) and 3.0 ml of 0.01M TB (pH 7) containing 15 μmoles of NADPH and the mixture was allowed to react at 30° C. for 60 minutes. After the reaction, the reaction mixture was analyzed by paper chromatography (developing solvent; phenol:formic acid:water=75:4:25, chromogenic agent; AHF solution, prepared by dissolving 0.93 g of anilin and 1.66 g of phthalic acid in 100 ml of water-saturated n-butanol and heating at 105° C. for 2 minutes) and by gas chromatography (column; SE-52, carrier gas: Helium, sample; trimethylsilylated derivative). […] In Table 1, the results of quantitative determination of the products by gas chromatography are shown.
(§2) The measurements of the physico-chemical properties were conducted in a manner as described in Example 1-(4) (5).

[3] = tested on: 25DKG-Rase derived from Strain T-13; experiment: Substrate specificity by product formation, enzyme from T-13; type: biochemical, Corynebacterium sp. No. T-13 (ATCC 31,089)
Protocol: as §1, §2

25DKG-Rase [4] = biological target: T2, 25DKG-Rase (Corynebacterium sp. SHS752001, UniProt P15339); experiment: Action, substrate specificity and Km of the purified 25DKG-Rase (general description); type: biochemical, genus Corynebacterium; conditions: for specificities for substrates (reducing action): in the presence of NADPH
T2 sequence (P15339 whole entry): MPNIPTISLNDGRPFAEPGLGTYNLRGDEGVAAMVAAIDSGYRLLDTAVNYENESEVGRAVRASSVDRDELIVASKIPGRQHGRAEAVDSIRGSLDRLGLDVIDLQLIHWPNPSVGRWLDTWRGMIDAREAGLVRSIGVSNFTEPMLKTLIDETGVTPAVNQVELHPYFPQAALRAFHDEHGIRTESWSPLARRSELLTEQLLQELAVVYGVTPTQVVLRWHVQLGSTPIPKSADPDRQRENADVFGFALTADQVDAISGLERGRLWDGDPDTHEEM
Description: As shown, NADPH is used as a hydrogen donor in the above reaction. Reduced nicotinamide adenine dinucleotide (NADH) may also be used as the hydrogen donor in the above reaction but the reaction velocity in that case is lowered to one two hundred and fiftieth (1/250) or less of that in the reaction where NADPH is used.
The enzymatic activity is spectrophotometrically measured on the basis of the decrease in absorption at 340 nm which corresponds to the oxidation of NADPH as the result of the enzyme reaction at 30° C. in 0.1M Tris buffer (pH 7) containing 0.1 mM NADPH and 3.3 mM Ca-25DKG. One unit of the enzymatic activity is defined as that oxidizes 1 μmole of NADPH for one minute.

25DKG-Rase [5] = biological target: T2, 25DKG-Rase; experiment: as above; type: biochemical, genus Corynebacterium; conditions: in the presence of NADP or NAD
25DKG-Rase [6] = biological target: T1, 25DKG-Rase; type: biochemical, Corynebacterium sp. No. 20A-77 mutant (FERM-BP 108); conditions: 60 minutes; for product formed (paper and gas chromatography): NADPH, 0.01M TB pH 7, 30° C.
[7] = tested on: 25DKG-Rase derived from Strain K-106; experiment: Enzymatic activity of 25DKG-Rase obtained from K-106 (Example 2); type: biochemical, Corynebacterium sp. No. K-106 (ATCC 31,088)
Protocol: (§3) Two point nine (2.9) ml of 0.1M TB (pH 7) containing 0.3 μmoles of NADPH was placed in a quartz cubette having 1 cm optical length difference and added 1-5 μl of the enzyme solution obtained above (3) thereto. Then, to the mixture, each 0.1 ml of the various substrate solutions (0.1M) were added while being kept at 30° C. Reactivities of the enzyme on the respective substrates were determined, by means of successive measurement of the decrease in absorption at 340 nm, on the basis of the decrease for 1 minute.
as §2
(§4) Enzymatic activities of 25DKG-Rases obtained from K-106 and T-13 were measured at varying pH from 4 to 9 (substrate: Ca-25DKG, reaction temperature: 30° C.).
(§5) The enzymatic activities of 25DKG-Rases obtained from K-106 and T-13 were measured at varying temperature (pH 7.0, substrate: Ca-25DKG).

[8] = tested on: 25DKG-Rase derived from Strain T-13; experiment: Enzymatic activity of 25DKG-Rase obtained from T-13 (Example 2); type: biochemical, Corynebacterium sp. No. T-13 (ATCC 31,089)
Protocol: as §3, §2, §4, §5

25DKG-Rase [9] = biological target: T2, 25DKG-Rase; experiment: Inhibition, activation and stabilization of the enzyme; type: biochemical, genus Corynebacterium; conditions: for activation of the enzyme: addition of Mg++ or Mn++; for stabilization of the enzyme: glycerol of a high concentration (30-50%) or sucrose (1M)
Description: It is stabilized by glycerol of a high concentration (30-50%) or sucrose (1M).

| SMILES | reductive activity (in words) (25DKG-Rase [1]) | product formed (substrate specificity) [2] | product formed (substrate specificity) [3] | specificities for substrates (reducing action) (25DKG-Rase [4]) | Activity of the purified enzyme solution (1 ml) (25DKG-Rase [1]) | also measured |
| --- | --- | --- | --- | --- | --- | --- |
| O=C(O)C(=O)[C@@H](O)[C@H](O)[C@H](O)CO [2-keto-D-gluconic acid] | does not show any reductive activity | None was produced | None was produced | does not show any reducing action | – | – |
| O=C(O)C(=O)[C@@H](O)[C@H](O)[C@@H](O)CO [2KLG, 2-keto-L-gulonic acid] | does not show any reductive activity | None was produced | None was produced | does not show any reducing action | – | production of 25DKG or 5KF from 2KLG or L-sorbose (reverse reaction) (25DKG-Rase [5]): No or not substantial production |
| O=C(CO)[C@@H](O)[C@H](O)[C@@H](O)C(=O)O [5-keto-D-gluconic acid] | does not show any reductive activity | None was produced | None was produced | does not reduce | – | – |
| O=C(CO)[C@@H](O)[C@H](O)C(=O)CO [5KF, 5-keto-D-fructose] | shows a high activity | only L-sorbose | only L-sorbose | shows specificities | 94 units | Enzymatic activity (25DKG-Rase [1]; pH 4.0, 3,3-dimethylglutaric acid buffer): 2 unit/ml; Enzymatic activity (25DKG-Rase [1]; pH 5.0, 3,3-dimethylglutaric acid buffer): 33 unit/ml; Enzymatic activity (25DKG-Rase [1]; pH 6.0, Good (PIPES) buffer): 96 unit/ml; Enzymatic activity (25DKG-Rase [1]; pH 6.5, Good (PIPES) buffer): 95 unit/ml; Enzymatic activity (25DKG-Rase [1]; pH 7.0, Good (PIPES) buffer): 92 unit/ml; Enzymatic activity (25DKG-Rase [1]; pH 7.0, Tris buffer): 93 unit/ml; Enzymatic activity (25DKG-Rase [1]; pH 7.5, Tris buffer): 68 unit/ml; Enzymatic activity (25DKG-Rase [1]; pH 8.0, Tris buffer): 48 unit/ml; Enzymatic activity (25DKG-Rase [1]; pH 8.5, Tris buffer): 27 unit/ml; Enzymatic activity (25DKG-Rase [1]; pH 9.0, Tris buffer): 13 unit/ml; Concentration of the product (25DKG-Rase [6]; 10 μl enzyme solution, 25 μmoles substrate, 15 μmoles NADPH, 30° C., gas chromatography): 795 µg/mL; product formed (paper and gas chromatography) (25DKG-Rase [6]): only L-sorbose is produced; Enzymatic activity per protein ([7]; enzyme from Strain K-106, NADPH): 152 units/mg protein; Enzymatic activity ([7]; enzyme from Strain K-106, purified enzyme solution, NADPH): 38.3 units/ml; Enzymatic activity per protein ([8]; enzyme from Strain T-13, NADPH): 229 units/mg protein; Enzymatic activity ([8]; enzyme from Strain T-13, purified enzyme solution, NADPH): 39 units/ml |
| O=C(O)C(=O)[C@@H](O)[C@H](O)C(=O)CO [25DKG, 2,5-diketo-D-gluconic acid] | shows a high activity | – | – | shows specificities | – | product formed (paper and gas chromatography) (25DKG-Rase [6]): only 2KLG is produced; Km ([7]; purified enzyme solution of K-106): 1.7 ± 1 mM; Km ([8]; purified enzyme solution of T-13): 2.6 ± 1 mM; 25DKG of the substrate reduced to 2KLG (25DKG-Rase [4]; 30° C. for 60-120 minutes): ≥ 90% |
| O=C(O)C(=O)[C@@H](O)[C@H](O)[C@H](O)CO [Ca-2-keto-D-gluconate] | – | – | – | – | 0 units | – |
| O=C(CO)[C@@H](O)[C@H](O)[C@H](O)CO [D-fructose] | does not show any reductive activity | None was produced | None was produced | does not show any reducing action | 0 units | – |
| O=C(CO)[C@@H](O)[C@H](O)[C@@H](O)C(=O)O [K-5-keto-gluconate] | – | – | – | – | 0 units | – |
| O=C(CO)[C@@H](O)[C@H](O)[C@@H](O)CO [L-sorbose] | does not show any reductive activity | None was produced | None was produced | does not show any reducing action | 0 units | production of 25DKG or 5KF from 2KLG or L-sorbose (reverse reaction) (25DKG-Rase [5]): No or not substantial production |
| [Mg+2] [Mg^++] | – | – | – | – | – | activation of the enzyme (25DKG-Rase [9]): No remarkable increase in activation |
| [Mn+2] [Mn^++] | – | – | – | – | – | activation of the enzyme (25DKG-Rase [9]): No remarkable increase in activation |
| NC(=O)C1=CN([C@@H]2O[C@H](COP(=O)(O)OP(=O)(O)OC[C@H]3O[C@@H](n4cnc5c(N)ncnc54)[C@H](O)[C@@H]3O)[C@@H](O)[C@H]2O)C=CC1 [NADH, Reduced nicotinamide adenine dinucleotide] | – | – | – | – | – | reaction velocity with NADH as hydrogen donor relative to NADPH (25DKG-Rase [4]; NADH in place of NADPH): 1/250 |
| O=C(O)C(=O)[C@@H](O)[C@H](O)[C@@H](O)CO [Na-2KLG] | – | – | – | – | 0 units | – |
| O=CC(O)CO (stereo not shown) [glyceroaldehyde] | – | – | – | – | – | inhibition of the enzyme (25DKG-Rase [9]): scarcely inhibited |
| OCC(O)CO [glycerol] | – | – | – | – | – | stabilization of the enzyme (25DKG-Rase [9]): stabilized |
| O=C(O)C(=O)O [oxalate] | – | – | – | – | – | inhibition of the enzyme (25DKG-Rase [9]): inhibited |
| OC[C@H]1O[C@@](CO)(O[C@H]2O[C@H](CO)[C@@H](O)[C@H](O)[C@H]2O)[C@@H](O)[C@@H]1O [sucrose] | – | – | – | – | – | stabilization of the enzyme (25DKG-Rase [9]): stabilized |

Reference: patent US4748122A, “2,5-diketo-D-gluconic acid reductase” (Shionogi & Co., Ltd., priority 1983, dated 1988)
